Laboratory results from patent US11547702B2, “Use of amlexanox” (SHANGHAI MICROPORT MEDICAL (GROUP) CO., LTD., priority 2016, dated 2023).

What was measured:
[1] = system: Human Aortic Endothelial Cells (HAECs); assay: In vitro cell proliferation test (MTT colorimetry), endothelial cells; conditions: 72 hours, based on the control group, average of 6 tests
[2] = system: Human Aortic Smooth Muscle Cells (HASMCs); assay: In vitro cell proliferation test (MTT colorimetry), smooth muscle cells; conditions: 72 hours, based on the control group, average of 6 tests
[3] = 1 μmol of each drug in culture medium
[4] = 6 μmol of each drug in culture medium
[5] = 10 μmol of each drug in culture medium

Compound: CO[C@H]1C[C@@H]2CC[C@@H](C)[C@@](O)(O2)C(=O)C(=O)N2CCCC[C@H]2C(=O)O[C@H]([C@H](C)C[C@@H]2CC[C@@H](O)[C@H](OC)C2)CC(=O)[C@H](C)/C=C(\C)[C@@H](O)[C@@H](OC)C(=O)[C@H](C)C[C@H](C)/C=C/C=C/C=C/1C [Rapamycin, rapamycin]
- Endothelial cell inhibition rate (%) [1, 3]: 7.7%
- Endothelial cell inhibition rate (%) [1, 4]: 16.0%
- Endothelial cell inhibition rate (%) [1, 5]: 21.8%
- Smooth muscle cell inhibition rate (%) [2, 3]: 9.1%
- Smooth muscle cell inhibition rate (%) [2, 4]: 18.9%

Compound: CC(C)c1ccc2oc3nc(N)c(C(=O)O)cc3c(=O)c2c1 [Amlexanox, 2-amimo-7-isopropyl-5-oxo-5H-[1]benzopyrano-[2,3,-b]pyridine-3-carboxylic acid]
- Endothelial cell inhibition rate (%) [1, 3]: 0.9%
- Endothelial cell inhibition rate (%) [1, 4]: 2.8%
- Endothelial cell inhibition rate (%) [1, 5]: 3.5%
- Smooth muscle cell inhibition rate (%) [2, 3]: 11.6%
- Smooth muscle cell inhibition rate (%) [2, 4]: 19.0%
- Smooth muscle cell inhibition rate (%) [2, 5]: 23.4%
